Test results reported in US20220125051A1, “PRE-HARVEST DESICCATION METHOD” (SYNGENTA CROP PROTECTION AG, priority 2019, published 2022).

Assays:
Assay in all cases: Post-emergence efficacy, Method A
Format in all cases: in vivo
[1] = test system: Digitaria sanguinalis (DIGSA); conditions: Digitaria sanguinalis, post-emergence, 312 h; Application rate 500 g/Ha; evaluated after 13 days; 100=total damage to plant, 0=no damage to plant; read-out: Control of weed species after post-emergence application, DIGSA
In short: (§1)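 Sow in standard soil; grow 14 d under glasshouse control (24/16 °C, 14 h light, 65% humidity). Spray post-emergence with compound formulated in acetone/IF50, diluted in Empicol ESC70 (0.25% or 1%) + 1% ammonium sulphate. Return to glasshouse, water twice daily, score at 13 d on a 0–100 damage scale.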

[2] = test system: Ipomoea hederacea (IPOHE); conditions: Ipomoea hederacea, post-emergence, 312 h, Application rate 500 g/Ha; evaluated after 13 days; 100=total damage to plant, 0=no damage to plant; read-out: Control of weed species after post-emergence application, IPOHE
In short: as §1

[3] = test system: Lolium perenne (LOLPE); conditions: Lolium perenne, post-emergence, 312 h, Application rate 500 g/Ha; evaluated after 13 days; 100=total damage to plant, 0=no damage to plant; read-out: Control of weed species after post-emergence application, LOLPE
In short: as §1

[4] = test system: Echinochloa crus-galli (ECHCG); conditions: Echinochloa crus-galli, post-emergence, 312 h; Application rate 500 g/Ha; evaluated after 13 days; 100=total damage to plant, 0=no damage to plant; read-out: Control of weed species after post-emergence application, ECHCG
In short: as §1

[5] = test system: Amaranthus palmeri (AMAPA); conditions: Amaranthus palmeri, post-emergence, 312 h; Application rate 500 g/Ha; evaluated after 13 days; 100=total damage to plant, 0=no damage to plant; read-out: Control of weed species after post-emergence application, AMAPA
In short: as §1

[6] = test system: Chenopodium album (CHEAL); conditions: Chenopodium album, post-emergence, 312 h; Application rate 500 g/Ha; evaluated after 13 days; 100=total damage to plant, 0=no damage to plant; read-out: Control of weed species after post-emergence application, CHEAL
In short: as §1

[7] = test system: Eleusine indica (ELEIN); conditions: Eleusine indica, post-emergence, 312 h; Application rate 500 g/Ha; evaluated after 13 days; 100=total damage to plant, 0=no damage to plant; read-out: Control of weed species after post-emergence application, ELEIN
In short: as §1

[8] = test system: Setaria faberi (SETFA); conditions: Setaria faberi, post-emergence, 312 h; Application rate 500 g/Ha; evaluated after 13 days; 100=total damage to plant, 0=no damage to plant; read-out: Control of weed species after post-emergence application, SETFA
In short: as §1

[9] = test system: Euphorbia heterophylla (EPHHL); conditions: Euphorbia heterophylla, post-emergence, 312 h; Application rate 500 g/Ha; evaluated after 13 days; 100=total damage to plant, 0=no damage to plant; read-out: Control of weed species after post-emergence application, EPHHL
In short: as §1

`Cc1cc(Cl)cnc1-c1cc[n+](CCCS(=O)(=O)[O-])nc1` [Compound A102] gave a pest or weed control at 500 g/ha [1] of 10%, a pest or weed control at 500 g/ha [2] of 0% and a pest or weed control at 500 g/ha [3] of 10%. It also gave a pest or weed control at 500 g/ha [4] of 10%, a pest or weed control at 500 g/ha [5] of 20% and a pest or weed control at 500 g/ha [6] of 50%. The pest or weed control at 500 g/ha [7] was 10%, the pest or weed control at 500 g/ha [8] was 10% and the pest or weed control at 500 g/ha [9] was 20%.

With `Cc1cc(Cl)cnc1-c1cc[n+](CCS(=O)(=O)[O-])nc1` [Compound A103] the pest or weed control at 500 g/ha [1] was 20%, the pest or weed control at 500 g/ha [2] was 30% and the pest or weed control at 500 g/ha [3] was 10%. It also gave a pest or weed control at 500 g/ha [4] of 30%, a pest or weed control at 500 g/ha [5] of 0% and a pest or weed control at 500 g/ha [6] of 50%. For the same molecule, the pest or weed control at 500 g/ha [7] was 30%, the pest or weed control at 500 g/ha [8] was 10% and the pest or weed control at 500 g/ha [9] was 50%.

In the case of `Cc1cc(F)cnc1-c1cc[n+](CCS(=O)(=O)[O-])nc1` [Compound A104], the pest or weed control at 500 g/ha [1] is reported as 30%, the pest or weed control at 500 g/ha [2] is reported as 30% and the pest or weed control at 500 g/ha [3] is reported as 10%. It also gave a pest or weed control at 500 g/ha [4] of 30%, a pest or weed control at 500 g/ha [5] of 10% and a pest or weed control at 500 g/ha [6] of 0%. It also gave a pest or weed control at 500 g/ha [7] of 50%, a pest or weed control at 500 g/ha [8] of 30% and a pest or weed control at 500 g/ha [9] of 20%.

In the case of `COc1cc(C)nc(-c2cc[n+](CCC(=O)[O-])nc2)n1` [Compound A105], the pest or weed control at 500 g/ha [1] is reported as 60%, the pest or weed control at 500 g/ha [2] is reported as 0% and the pest or weed control at 500 g/ha [3] is reported as 50%. The pest or weed control at 500 g/ha [4] was 40%, the pest or weed control at 500 g/ha [5] was 90% and the pest or weed control at 500 g/ha [6] was 20%. For the same molecule, the pest or weed control at 500 g/ha [7] was 20%, the pest or weed control at 500 g/ha [8] was 90% and the pest or weed control at 500 g/ha [9] was 50%.

In the case of `COc1nc(-c2cc[n+](CCC(=O)[O-])nc2)ncc1C` [Compound A106], the pest or weed control at 500 g/ha [1] is reported as 60%, the pest or weed control at 500 g/ha [2] is reported as 10% and the pest or weed control at 500 g/ha [3] is reported as 60%. It also gave a pest or weed control at 500 g/ha [4] of 50%, a pest or weed control at 500 g/ha [5] of 80% and a pest or weed control at 500 g/ha [6] of 20%. The pest or weed control at 500 g/ha [7] was 80%, the pest or weed control at 500 g/ha [8] was 60% and the pest or weed control at 500 g/ha [9] was 20%.

`O=S(=O)([O-])CC[n+]1ccc(-c2ccnc(C(F)(F)F)n2)cn1` [Compound A108] was tested, and the pest or weed control at 500 g/ha [1] was 50%, the pest or weed control at 500 g/ha [2] was 70% and the pest or weed control at 500 g/ha [3] was 40%. The pest or weed control at 500 g/ha [4] was 40%, the pest or weed control at 500 g/ha [5] was 40% and the pest or weed control at 500 g/ha [6] was 80%. The pest or weed control at 500 g/ha [7] was 60%, the pest or weed control at 500 g/ha [8] was 60% and the pest or weed control at 500 g/ha [9] was 80%.

`O=S(=O)([O-])CC[n+]1ccc(-c2cc(C(F)(F)F)ncn2)cn1` [Compound A109] was tested, and the pest or weed control at 500 g/ha [1] was 50%, the pest or weed control at 500 g/ha [2] was 50% and the pest or weed control at 500 g/ha [3] was 30%. For the same molecule, the pest or weed control at 500 g/ha [4] was 40%, the pest or weed control at 500 g/ha [5] was 60% and the pest or weed control at 500 g/ha [6] was 60%. The pest or weed control at 500 g/ha [7] was 50%, the pest or weed control at 500 g/ha [8] was 30% and the pest or weed control at 500 g/ha [9] was 60%.

`O=S(=O)([O-])CC[n+]1ccc(-c2cncc(C(F)(F)F)n2)cn1` [Compound A110] showed a pest or weed control at 500 g/ha [1] of 40%, a pest or weed control at 500 g/ha [2] of 80% and a pest or weed control at 500 g/ha [3] of 50%. The pest or weed control at 500 g/ha [4] was 50%, the pest or weed control at 500 g/ha [5] was 100% and the pest or weed control at 500 g/ha [6] was 100%. It also gave a pest or weed control at 500 g/ha [7] of 90%, a pest or weed control at 500 g/ha [8] of 50% and a pest or weed control at 500 g/ha [9] of 80%.

In the case of `O=S(=O)([O-])CC[n+]1ccc(-c2cnc(C(F)(F)F)cn2)cn1` [Compound A112], the pest or weed control at 500 g/ha [1] is reported as 40%, the pest or weed control at 500 g/ha [2] is reported as 40% and the pest or weed control at 500 g/ha [3] is reported as 40%. The pest or weed control at 500 g/ha [4] was 40%, the pest or weed control at 500 g/ha [5] was 100% and the pest or weed control at 500 g/ha [6] was 100%. The pest or weed control at 500 g/ha [7] was 50%, the pest or weed control at 500 g/ha [8] was 70% and the pest or weed control at 500 g/ha [9] was 80%.

Molecule `CCOP(=O)(O)CC[n+]1ccc(-c2ncccn2)cn1` [Compound A113, ethoxy-[2-(4-pyrimidin-2-ylpyridazin-1-ium-1-yl)ethyl]phosphinate] has a pest or weed control at 500 g/ha [1] of 60%, a pest or weed control at 500 g/ha [2] of 60% and a pest or weed control at 500 g/ha [3] of 10%. The pest or weed control at 500 g/ha [4] was 60%, the pest or weed control at 500 g/ha [5] was 40% and the pest or weed control at 500 g/ha [6] was 90%. For the same molecule, the pest or weed control at 500 g/ha [7] was 40%, the pest or weed control at 500 g/ha [8] was 50% and the pest or weed control at 500 g/ha [9] was 100%.
